Results published in patent US20260242359A1, “IRHOM2 INHIBITORS AND USES THEREOF” (NEW YORK SOCIETY FOR THE RELIEF OF THE RUPTURED AND …, priority 2023, published 2026).
Like-named read-outs stand apart in the source and are kept apart here.

System: LPS-induced release of endogenous TNFα from human THP-1 macrophage cells
Test: Example 12: ELISA-based TNFα release assay, LPS-induced, THP-1 macrophage cells
Assay type: cell-based
Details: for inhibition at 10 µM: Homo sapiens, THP-1, 2 h, read-out: inhibition of LPS-induced release of TNFα from THP-1 cells
Procedure: In the following study, ELISA-based TNFα release assay was performed to verify the inhibitory effects of Compounds 1, 2, 3, 4, 5, and 7 on LPS-induced release of endogenous TNFα from human THP-1 macrophage cells. The ELISA-based TNFα release assay that was used in this example is described below.
In brief, on day 1, Nunc black MaxiSorp® 96-well plates (Thermo Fisher Scientific, USA) were coated overnight with 100 μl per well of mouse anti-human TNFα capture antibody (provided as part of the DuoSet ELISA kit) at 4 μg/ml TBS at 4° C. On day 2, the capture antibody solution was removed and MaxiSorp® plates were blocked with 300 μl per well of TBS, 1% BSA at room temperature for 3 hours. Meanwhile, 20,000 THP-1 (American Type Culture Collection, USA) cells in 80 μl of normal growth medium were seeded in each well of Greiner CELLSTAR V-bottom 96-well plates (Thermo Fisher Scientific, USA) and pre-incubated with 20 μl per well of standard growth medium supplemented with Batimastat (BB94, Abcam, UK) at 50 μM as positive control (for a final concentration of 10 μM in the resulting 100 μl sample volume), compounds of the invention at 50 μM (for a final concentration of 10 μM in the resulting 100 μl sample volume) and in case of Buffer stimulated and unstimulated controls with DMSO (Carl Roth, Germany) at 50 μM (for a final concentration of 10 μM in the resulting 100 μl sample volume) at 37° C., 5% CO2 for 30 minutes. Subsequently, cells (except those for unstimulated controls) were stimulated with 20 μl per well of LPS (Sigma-Aldrich, USA) at 300 ng/ml growth medium for a final concentration of 50 ng/ml at 37° C., 5% CO2 for 2 hours. Afterwards, the 96-well plates were centrifuged to pellet cells. In parallel, blocking buffer was removed from the MaxiSorp® plates and plates were washed 4 times with 350 μl per well of TBS-T (Carl Roth, Germany) on a 96-head plate washer (Tecan Group, Switzerland). To avoid drying-up, 30 μl of TBS were added to each well of the MaxiSorp® plates immediately, followed by the transfer of 70 μl of cell-free supernatant per sample. Additionally, 100 μl of recombinant human TNFα protein (provided as part of the DuoSet ELISA kit) diluted in TBS at defined concentrations were added to the plate as standard references. Thereafter, 100 μl per well of biotinylated goat anti-human TNFα detection antibody (provided as part of the DuoSet ELISA kit) at 50 ng/ml TBS were added and, protected from direct light, plates were incubated at room temperature for 2 hours. After 4 times washing with 350 μl per well of TBS-T (Carl Roth, Germany) on a 96-head plate washer (Tecan Group, Switzerland) and careful removal of all buffer traces after the fourth cycle, 100 μl of streptavidin-AP (R&D Systems, USA) diluted 1:10,000 in TBS were added to each well and, again protected from direct light, plates were incubated at room temperature for 30 minutes. Following another round of 4 times washing with 350 μl per well of TBS-T (Carl Roth, Germany) on a 96-head plate washer (Tecan Group, Switzerland) and careful removal of all buffer traces after the fourth cycle, 100 μl of AttoPhos substrate solution (Promega, USA) was added for incubation in the dark at room temperature for 1 hour. Using an infinite M1000 PRO (Tecan Group, Switzerland) microplate reader, the fluorescence of each well was collected at an excitation wavelength of 435 nm and an emission wavelength of 555 nm.
The delta between Buffer stimulated and Buffer unstimulated was defined 100% inhibition.

[1] = 10 μM final concentration, LPS 50 ng/ml, 2 hours, delta Buffer stimulated vs unstimulated = 100% inhibition

| SMILES | inhibition of LPS-induced release of TNFα from THP-1 cells [1] [%] | inhibition at 10 µM [1] [%] | inhibition at 10 µM [%] |
| --- | --- | --- | --- |
| CNC(=O)[C@H](Cc1ccccc1)NC(=O)[C@H](CC(C)C)[C@H](CSc1cccs1)C(=O)NO [Batimastat, reference compound] | 94.9 | 87.4 |  |
| CCC(=O)NCCc1c(/C=C2/C(=O)NC(=O)N(c3ccc(C)cc3C)C2=O)[nH]c2ccccc12 [Compound 1] |  |  | 100 |
| CCOC(=O)c1ccc(Nc2nc3nonc3n3nnnc23)cc1 [Compound 2] |  | 94.6 |  |
| O=C(c1c(Cl)cccc1Cl)N1CCC(Cc2ccc(F)cc2)CC1 [Compound 3] |  | 93.1 |  |
| Cc1c(C(=O)NCc2cccs2)sc(=O)n1Cc1ccccc1 [Compound 4] |  | 58.2 |  |
| Cc1c(C(=O)NCc2cccs2)sc(=O)n1Cc1ccccc1F [Compound 5] |  | 66.1 |  |
| Cc1c(C(=O)NCc2ccco2)sc(=O)n1Cc1ccccc1F [Compound 7] |  | 85.8 |  |
